Legend:
[1] = system: CAF-13; assay: 2D electrophoresis fold change of CAF-13 in primary cultures of human airway myofibroblasts; assay type: cell-based; conditions: thrombin 20 units/ml
Method: (§1) dexamethasone at 1 μM (glucocorticoid).

[2] = system: CAF-21; assay: 2D electrophoresis fold change of CAF-21 in primary cultures of human airway myofibroblasts; assay type: cell-based; conditions: thrombin 20 units/ml
Method: as §1

[3] = system: CAF-20; assay: 2D electrophoresis fold change of CAF-20 in primary cultures of human airway myofibroblasts; assay type: cell-based; conditions: thrombin 20 units/ml, early
Method: as §1

[4] = system: CAF-18; assay: 2D electrophoresis fold change of CAF-18 in primary cultures of human airway myofibroblasts; assay type: cell-based; conditions: thrombin 20 units/ml
Method: as §1

[5] = system: CAF-24; assay: 2D electrophoresis fold change of CAF-24 in primary cultures of human airway myofibroblasts; assay type: cell-based; conditions: thrombin 20 units/ml, early
Method: as §1

[6] = system: CAF-22; assay: 2D electrophoresis fold change of CAF-22 in primary cultures of human airway myofibroblasts; assay type: cell-based; conditions: thrombin 20 units/ml, early
Method: as §1

[7] = system: CAF-35; assay: 2D electrophoresis fold change of CAF-35 in primary cultures of human airway myofibroblasts; assay type: cell-based; conditions: thrombin 20 units/ml, late
Method: as §1

[8] = system: CAF-34; assay: 2D electrophoresis fold change of CAF-34 in primary cultures of human airway myofibroblasts; assay type: cell-based; conditions: thrombin 20 units/ml
Method: as §1

[9] = system: CAF-3; assay: 2D electrophoresis fold change of CAF-3 in primary cultures of human airway myofibroblasts; assay type: cell-based; conditions: thrombin 20 units/ml
Method: as §1

[10] = system: CAF-33; assay: 2D electrophoresis fold change of CAF-33 in primary cultures of human airway myofibroblasts; assay type: cell-based; conditions: thrombin 20 units/ml, late
Method: as §1

[11] = system: CAF-2; assay: 2D electrophoresis fold change of CAF-2 in primary cultures of human airway myofibroblasts; assay type: cell-based; conditions: thrombin 20 units/ml
Method: as §1

[12] = system: CAF-29; assay: 2D electrophoresis fold change of CAF-29 in primary cultures of human airway myofibroblasts; assay type: cell-based; conditions: thrombin 20 units/ml
Method: as §1

[13] = system: CAF-5; assay: 2D electrophoresis fold change of CAF-5 in primary cultures of human airway myofibroblasts; assay type: cell-based; conditions: thrombin 20 units/ml
Method: as §1

[14] = system: CAF-1; conditions: thrombin 20 units/ml
Method: Using the following procedure, proteins in primary cultures of human airway myofibroblasts were separated by isoelectric focusing followed by SDS-PAGE and analyzed. Different cultures were used, infra, and two different time points at 1 hour (referred to as “early”) and 6 hours (referred to as “late”) were taken. Parts 6.1.1 to 6.1.14 (inclusive) of the procedure set forth below are hereby designated as the “Reference Protocol”.
Primary cultures of human airway myofibroblasts (Hall IP, Kotlikoff M, Am J Physiol January 1995; 268(1 Pt 1): L1-11, Use of cultured airway myocytes for study of airway smooth muscle; Hirst S J, Eur Respir J April 1996; 9(4): 808-20, Airway smooth muscle cell culture: application to studies of airway wall remodeling and phenotype plasticity in asthma.) were treated by one, or a successive combination of, the following:
thrombin at 20 units/ml (Panettieri R A Jr, Hall I P, Maki C S, Murray R K, Am J Respir Cell Mol Biol August 1995; 13(2):205-16, Alpha-Thrombin increases cytosolic calcium and induces human airway smooth muscle cell proliferation).
as §1
theophylline 100 μM (Billington C K, Joseph S K, Swan C, Scott M G, Jobson T M, Hall I P, Am J Physiol March 1999; 276(3 Pt 1):L412-9, Modulation of human airway smooth muscle proliferation by type 3 phosphodiesterase inhibition).
Using the protein expression database, matching protein features present in test primary cultures and in control primary cultures were compared.

[15] = system: CAF-25; assay: 2D electrophoresis fold change of CAF-25 in primary cultures of human airway myofibroblasts; assay type: cell-based; conditions: thrombin 20 units/ml
Method: as §1

[16] = system: CAF-19; assay: 2D electrophoresis fold change of CAF-19 in primary cultures of human airway myofibroblasts; assay type: cell-based; conditions: thrombin 20 units/ml, late
Method: as §1

[17] = system: CAF-15; assay: 2D electrophoresis fold change of CAF-15 in primary cultures of human airway myofibroblasts; assay type: cell-based; conditions: thrombin 20 units/ml
Method: as §1

[18] = system: CAF-12; assay: 2D electrophoresis fold change of CAF-12 in primary cultures of human airway myofibroblasts; assay type: cell-based; conditions: thrombin 20 units/ml, early
Method: as §1

Molecule: thrombin
- Fold change following 1 h thrombin, relative to untreated cells ([1]; early): −2.425
- Fold change following 6 h thrombin, relative to untreated cells ([1]; late): 3.292
- Fold change following 1 h thrombin, relative to untreated cells ([2]; early): −4.110
- Fold change following 6 h thrombin, relative to untreated cells ([2]; late): 4.186
- Fold change following 1 h thrombin, relative to untreated cells [3]: −16.512
- Fold change following 1 h thrombin, relative to untreated cells ([4]; early): −19.780
- Fold change following 6 h thrombin, relative to untreated cells ([4]; late): 16.517
- Fold change following 1 h thrombin, relative to untreated cells [5]: −332.863
- Fold change following 1 h thrombin, relative to untreated cells [6]: 1.733
- Fold change following 6 h thrombin, relative to untreated cells [7]: −3.705
- Fold change following 1 h thrombin, relative to untreated cells ([8]; early): 2.741
- Fold change following 6 h thrombin, relative to untreated cells ([8]; late): 5.005
- Fold change following 1 h thrombin, relative to untreated cells ([9]; early): −2.976
- Fold change following 6 h thrombin, relative to untreated cells ([9]; late): 2.120
- Fold change following 6 h thrombin, relative to untreated cells [10]: −4.459
- Fold change following 1 h thrombin, relative to untreated cells ([11]; early): 7.832
- Fold change following 6 h thrombin, relative to untreated cells ([11]; late): 14.593
- Fold change following 1 h thrombin, relative to untreated cells ([12]; early): 2.597
- Fold change following 6 h thrombin, relative to untreated cells ([12]; late): 2.169
- Fold change following 1 h thrombin, relative to untreated cells ([13]; early): −3.486
- Fold change following 6 h thrombin, relative to untreated cells ([13]; late): −2.846
- Fold change following 1 h thrombin, relative to untreated cells ([14]; early): −4.393
- Fold change following 6 h thrombin, relative to untreated cells ([14]; late): 2.463
- Fold change following 1 h thrombin, relative to untreated cells ([15]; early): −8.122
- Fold change following 6 h thrombin, relative to untreated cells ([15]; late): −4.750
- Fold change following 6 h thrombin, relative to untreated cells [16]: −2.815
- Fold change following 1 h thrombin, relative to untreated cells ([17]; early): −14.045
- Fold change following 6 h thrombin, relative to untreated cells ([17]; late): 3.037
- Fold change following 1 h thrombin, relative to untreated cells [18]: −51.041

Molecule: C[C@@H]1C[C@H]2[C@@H]3CCC4=CC(=O)C=C[C@]4(C)[C@@]3(F)[C@@H](O)C[C@]2(C)[C@@]1(O)C(=O)CO [Dexamethasone, dexamethasone]
- Fold change following 1 h thrombin and 1 h Dexamethasone relative to cells treated with thrombin alone ([1]; dexamethasone 1 μM, early): 5.677
- Fold change following 1 h thrombin and 1 h Dexamethasone relative to cells treated with thrombin alone ([3]; dexamethasone 1 μM): 20.554
- Fold change following 1 h thrombin and 1 h Dexamethasone relative to cells treated with thrombin alone ([4]; dexamethasone 1 μM, early): 8.553
- Fold change following 6 h thrombin and 7 h Dexamethasone relative to cells treated with thrombin alone ([4]; dexamethasone 1 μM, late): −15.966
- Fold change following 1 h thrombin and 1 h Dexamethasone relative to cells treated with thrombin alone ([5]; dexamethasone 1 μM): 75.754
- Fold change following 1 h thrombin and 1 h Dexamethasone relative to cells treated with thrombin alone ([6]; dexamethasone 1 μM): −2.909
- Fold change following 1 h thrombin and 1 h Dexamethasone relative to cells treated with thrombin alone ([9]; dexamethasone 1 μM, early): 2.438
- Fold change following 6 h thrombin and 7 h Dexamethasone relative to cells treated with thrombin alone ([12]; dexamethasone 1 μM, late): −2.142
- Fold change following 1 h thrombin and 1 h Dexamethasone relative to cells treated with thrombin alone ([14]; dexamethasone 1 μM, early): 4.713
- Fold change following 1 h thrombin and 1 h Dexamethasone relative to cells treated with thrombin alone ([15]; dexamethasone 1 μM, early): 5.245
- Fold change following 1 h thrombin and 1 h Dexamethasone relative to cells treated with thrombin alone ([17]; dexamethasone 1 μM, early): 4.619
- Fold change following 6 h thrombin and 7 h Dexamethasone relative to cells treated with thrombin alone ([17]; dexamethasone 1 μM, late): −2.423
- Fold change following 1 h thrombin and 1 h Dexamethasone relative to cells treated with thrombin alone ([18]; dexamethasone 1 μM): 21.529

Molecule: Cn1c(=O)c2[nH]cnc2n(C)c1=O [theophylline]
- Fold change following 1 h thrombin and 1 h theophylline relative to cells treated with thrombin alone ([1]; theophylline 100 μM, early): 4.288
- Fold change following 1 h thrombin and 1 h theophylline relative to cells treated with thrombin alone ([3]; theophylline 100 μM): 29.086
- Fold change following 1 h thrombin and 1 h theophylline relative to cells treated with thrombin alone ([4]; theophylline 100 μM, early): 26.692
- Fold change following 6 h thrombin and 7 h theophylline relative to cells treated with thrombin alone ([4]; theophylline 100 μM, late): 2.839
- Fold change following 1 h thrombin and 1 h theophylline relative to cells treated with thrombin alone ([5]; theophylline 100 μM): 19.892
- Fold change following 1 h thrombin and 1 h theophylline relative to cells treated with thrombin alone ([6]; theophylline 100 μM): −2.096
- Fold change following 6 h thrombin and 6 h theophylline relative to cells treated with thrombin alone ([7]; theophylline 100 μM): 2.182
- Fold change following 6 h thrombin and 6 h theophylline relative to cells treated with thrombin alone ([10]; theophylline 100 μM): 2.031
- Fold change following 1 h thrombin and 1 h theophylline relative to cells treated with thrombin alone ([11]; theophylline 100 μM, early): 4.912
- Fold change following 1 h thrombin and 1 h theophylline relative to cells treated with thrombin alone ([13]; theophylline 100 μM, early): 2.306
- Fold change following 1 h thrombin and 1 h theophylline relative to cells treated with thrombin alone ([14]; theophylline 100 μM, early): 3.518
- Fold change following 6 h thrombin and 7 h theophylline relative to cells treated with thrombin alone ([14]; theophylline 100 μM, late): −2.122
- Fold change following 1 h thrombin and 1 h theophylline relative to cells treated with thrombin alone ([15]; theophylline 100 μM, early): 10.216
- Fold change following 6 h thrombin and 6 h theophylline relative to cells treated with thrombin alone ([15]; theophylline 100 μM, late): 19.320
- Fold change following 6 h thrombin and 6 h theophylline relative to cells treated with thrombin alone ([16]; theophylline 100 μM): 2.800
- Fold change following 1 h thrombin and 1 h theophylline relative to cells treated with thrombin alone ([17]; theophylline 100 μM, early): 16.824
- Fold change following 6 h thrombin and 7 h theophylline relative to cells treated with thrombin alone ([17]; theophylline 100 μM, late): −2.077
- Fold change following 1 h thrombin and 1 h theophylline relative to cells treated with thrombin alone ([18]; theophylline 100 μM): 39.410
